# Assay results taken from patent publication US20210238162A1, “CHEMICAL COMPOUNDS” (GlaxoSmithKline Intellectual Property Development Limited, priority 2015, published 2021).
# Target: T1, haematopoietic prostaglandin D synthase (H-PGDS) (Homo sapiens, UniProt O60760)
# T1 construct: Full length human H-PGDS cDNA (Invitrogen Ultimate ORF IOH13026) was amplified by PCR; made in house; host or cells: E. coli BL21 (DE3*), vector pET22b+
# Experiment: H-PGDS RapidFire High Throughput Mass Spectrometry Assay
# Assay type: biochemical
# Conditions: H-PGDS RapidFire MS assay, mean pIC50; read-out: Potency Range (mean pIC50) (converted)
# Outline: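 PGH2 (~10 μM burst) generated in situ from arachidonic acid by FLAG-tagged human COX-2 (Sf9-expressed), then converted to PGD2 by full-length human His-tagged H-PGDS from E. coli. PGD2 and PGF2α (substrate surrogate) quantified by RapidFire SPE-triple quadrupole MS; percent conversion calculated.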
# T1 sequence (O60760 whole entry): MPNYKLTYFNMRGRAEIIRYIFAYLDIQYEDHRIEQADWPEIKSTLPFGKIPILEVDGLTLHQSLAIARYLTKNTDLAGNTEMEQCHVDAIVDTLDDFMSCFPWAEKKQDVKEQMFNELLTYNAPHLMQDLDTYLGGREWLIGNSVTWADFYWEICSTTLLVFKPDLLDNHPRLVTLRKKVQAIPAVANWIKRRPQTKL
row,SMILES,IC50 [nM]
1,"O=C(N[C@H]1CC[C@H](C2(O)CC2)CC1)c1cnc2cc(OC(F)F)c(Cl)cc2c1 [Example 121, 6-Chloro-7-(difluoromethoxy)-N-(trans-4-(1-hydroxycyclopropyl)cyclohexyl)quinoline-3-carboxamide]",< 10
2,"O=C(N[C@H]1CC[C@H]([C@@H](O)C(F)(F)F)CC1)c1cnc2cc(OC(F)F)ccc2c1 (single isomer, unassigned) [Example 20]",< 10
3,"O=C(N[C@H]1CC[C@H](N[C@H](CO)C(F)(F)F)CC1)c1cnc2cc(OC(F)F)c(Br)cc2c1 [Example 155, 6-Bromo-7-(difluoromethoxy)-N-(trans-4-(((R)-1,1,1-trifluoro-3-hydroxypropan-2-yl)amino)cyclohexyl)quinoline-3-carboxamide]",< 10
4,"O=C1CC(NC(=O)c2cnc3cc(OC(F)F)c(Cl)cc3c2)C1 [Example 142, 6-Chloro-7-(difluoromethoxy)-N-(3-oxocyclobutyl)quinoline-3-carboxamide]",10 to 79.4
5,"COc1cc(F)c2cc(C(=O)NC3CCN(c4nnnn4C)CC3)cnc2c1 [Example 30, 5-Fluoro-7-methoxy-N-(1-(1-methyl-1H-tetrazol-5-yl)piperidin-4-yl)quinoline-3-carboxamide]",10 to 79.4
6,"COc1cc2ncc(C(=O)NC3CCN(c4nnnn4C)CC3)cc2cc1C#N [Example 114, 6-Cyano-7-methoxy-N-(1-(1-methyl-1H-tetrazol-5-yl)piperidin-4-yl)quinoline-3-carboxamide]",100 to 1000
7,"NC(=O)CO[C@H]1CC[C@H](NC(=O)c2cnc3cc(OC(F)F)c(Cl)cc3c2)CC1 [Example 136, N-(trans-4-(2-Amino-2-oxoethoxy)cyclohexyl)-6-chloro-7-(difluoromethoxy)quinoline-3-carboxamide]",< 10
8,"CC(C)(O)[C@H]1CC[C@H](NC(=O)c2cnc3cc(N4CC(F)C4)c(F)cc3c2)CC1 [Example 164, 6-Fluoro-7-(3-fluoroazetidin-1-yl)-N-(trans-4-(2-hydroxypropan-2-yl)cyclohexyl)quinoline-3-carboxamide]",< 10
9,"Cn1nnnc1N1CCC(NC(=O)c2cnc3cc4c(cc3c2)OCCO4)CC1 [Example 111, N-(1-(1-Methyl-1H-tetrazol-5-yl)piperidin-4-yl)-2,3-dihydro-[1,4]dioxino[2,3-q]quinoline-8-carboxamide]",10 to 79.4
10,"CS(=O)(=O)CCO[C@H]1CC[C@H](NC(=O)c2cnc3cc(OC(F)F)c(F)cc3c2)CC1 [Example 94, 7-(Difluoromethoxy)-6-fluoro-N-(trans-4-(2-(methylsulfonyl)ethoxy)cyclohexyl)quinoline-3-carboxamide]",10 to 79.4
11,"CC(C)(O)[C@H]1CC[C@H](NC(=O)c2cnc3cc(OC(F)F)c(Br)cc3c2)CC1 [Example 152, 6-Bromo-7-(difluoromethoxy)-N-(trans-4-(2-hydroxypropan-2-yl)cyclohexyl)quinoline-3-carboxamide]",< 10
12,"C#CCOC[C@H]1CC[C@H](NC(=O)c2cnc3cc(OC(F)F)c(F)cc3c2)CC1 [Example 101, 7-(Difluoromethoxy)-6-fluoro-N-(trans-4-((prop-2-yn-1-yloxy)methyl)cyclohexyl)quinoline-3-carboxamide]",< 10
13,"CC(C)(O)[C@H]1CC[C@H](NC(=O)c2cnc3cc(C4CCC4)c(Cl)cc3c2)CC1 [Example 179, 6-Chloro-7-cyclobutyl-N-(trans-4-(2-hydroxypropan-yl)cyclohexyl)quinoline-3-carboxamide]",< 10
14,"CC(C)(O)C(=O)N1CC(NC(=O)c2cnc3cc(OC(F)F)c(Cl)cc3c2)C1 [Example 221, 6-Chloro-7-(difluoromethoxy)-N-(1-(2-hydroxy-2-methylpropanoyl)azetidin-3-yl)quinoline-3-carboxamide]",100 to 1000
15,"C[C@@H]1CNC(=O)[C@H]1NC(=O)c1cnc2cc(N3CC[C@@H]3C)c(Cl)cc2c1 [Example 205, 6-Chloro-N-((3S,4R)-4-methyl-2-oxopyrrolidin-3-yl)-7-((S)-2-methylazetidin-1-yl)quinoline-3-carboxamide]",< 10
16,"O=C(NC1CCN(c2ccccn2)CC1)c1cnc2cc(OC(F)F)c(F)cc2c1 [Example 95, 7-(Difluoromethoxy)-6-fluoro-N-(1-(pyridin-2-yl)piperidin-4-yl)quinoline-3-carboxamide]",< 10
17,"O=C(N[C@H]1CCNC1=O)c1cnc2cc(C3CCC3)c(Cl)cc2c1 [Example 181, (S)-6-Chloro-7-cyclobutyl-N-(2-oxopyrrolidin-3-yl)quinoline-3-carboxamide]",< 10
18,"O=C1CC(NC(=O)c2cnc3cc(OC(F)F)ccc3c2)c2ccccc2N1 (stereo not shown) [Example 9, 7-(Difluoromethoxy)-N-(2-oxo-1,2,3,4-tetrahydroquinolin-4-yl)quinoline-3-carboxamide]",10 to 79.4
19,"CC(C)(O)[C@H]1CC[C@H](NC(=O)c2cnc3cc(C4CCC4)ccc3c2)CC1 [Example 197, 7-Cyclobutyl-N-(trans-4-(2-hydroxypropan-2-yl)cyclohexyl)quinoline-3-carboxamide]",10 to 79.4
20,"O=C1CC(NC(=O)c2cnc3cc(OC(F)F)c(F)cc3c2)c2ccccc2N1 (stereo not shown) [Example 54, 7-(Difluoromethoxy)-6-fluoro-N-(2-oxo-1,2,3,4-tetrahydroquinolin-4-yl)quinoline-3-carboxamide]",10 to 79.4
21,"CC(C)(O)[C@H]1C[C@H](NC(=O)c2cnc3cc(OC(F)F)ccc3c2)C1 [Example 11, 7-(Difluoromethoxy)-N-(trans-3-(2-hydroxypropan-2-yl)cyclobutyl)quinoline-3-carboxamide]",10 to 79.4
22,"O=C(N[C@H]1CCNC1=O)c1cnc2cc(N3CC(F)C3)c(Cl)cc2c1 [Example 169, (S)-6-Chloro-7-(3-fluoroazetidin-1-yl)-N-(2-oxopyrrolidin-3-yl)quinoline-3-carboxamide]",< 10
23,CC(C)(O)[C@H]1CC[C@H](NC(=O)c2cnc3cc(C4CC4)c(Cl)cc3c2)CC1 [Example 39],< 10
24,"CC(C)Oc1ccc2cc(C(=O)NC3CCN(c4nnnn4C)CC3)cnc2c1 [Example 115, 7-Isopropoxy-N-(1-(1-methyl-1H-tetrazol-5-yl)piperidin-4-yl)quinoline-3-carboxamide]",100 to 1000
25,"CC(C)(O)[C@H]1CC[C@H](NC(=O)c2cnc3cc(N4CCC4)ccc3c2)CC1 [Example 194, 7-(Azetidin-1-yl)-N-(trans-4-(2-hydroxypropan-2-yl)cyclohexyl)quinoline-3-carboxamide]",< 10
26,"CC1(C)CC(NC(=O)c2cnc3cc(OC(F)F)c(Cl)cc3c2)CCO1 (stereo not shown) [Example 150, 6-Chloro-7-(difluoromethoxy)-N-(2,2-dimethyltetrahydro-2H-pyran-4-yl)quinoline-3-carboxamide]",10 to 79.4
27,"CC(C)C(O)CO[C@H]1CC[C@H](NC(=O)c2cnc3cc(OC(F)F)c(F)cc3c2)CC1 (stereo partly drawn) [Example 79, 7-(Difluoromethoxy)-6-fluoro-N-(trans-4-(2-hydroxy-3-methylbutoxy)cyclohexyl)quinoline-3-carboxamide]",10 to 79.4
28,"CS(=O)(=O)CCO[C@H]1CC[C@H](NC(=O)c2cnc3cc(OC(F)F)c(Cl)cc3c2)CC1 [Example 139, 6-Chloro-7-(difluoromethoxy)-N-(trans-4-(2-(methylsulfonyl)ethoxy)cyclohexyl)quinoline-3-carboxamide]",< 10

# Same assay, conditions: in at least one experimental run; read-out: H-PGDS pIC50 value (converted)
row,SMILES,IC50 [nM]
1,"O=C(N[C@H]1CC[C@H]([C@@H](O)C(F)(F)F)CC1)c1cnc2cc(OC(F)F)ccc2c1 (single isomer, unassigned) [Example 20]",7.94
2,"O=C1CC(NC(=O)c2cnc3cc(OC(F)F)c(Cl)cc3c2)C1 [Example 142, 6-Chloro-7-(difluoromethoxy)-N-(3-oxocyclobutyl)quinoline-3-carboxamide]",39.8
3,"CC1(C)CC(NC(=O)c2cnc3cc(OC(F)F)c(Cl)cc3c2)CCO1 (stereo not shown) [Example 150, 6-Chloro-7-(difluoromethoxy)-N-(2,2-dimethyltetrahydro-2H-pyran-4-yl)quinoline-3-carboxamide]",39.8
